Where two headings read alike, the source gives them in different places.
Assays:
[1] = system: Trypanosoma cruzi CL Brener epimastigotes; test: Growth inhibition of Trypanosoma cruzi epimastigotes (SYBR Green); format: cell-based; settings: 72 h, 10 μM to 1 nM
Experimental: Trypanosoma cruzi CL Brener epimastigotes were obtained from Dr. Fred Buckner of the Department of Medicine at the University of Washington. T. cruzi epimastigotes were grown in liver infusion tryptose medium and seeded in a 96-well plate at 10^5 epimastigotes per well in 100 μl medium. For each well, 1 μl of compound in DMSO at 100X the desired final concentration was added. Epimastigotes were exposed to a range of compound concentrations from 10 μM to 1 nM to determine EC50. Plates were incubated at 26°C for 72 h, then 10 μl 50X SYBR Green in 1% Triton X-100 was added to each well followed by incubation with shaking at room temperature for 30 minutes. Fluorescence was read (excitation 485nm, emission 535nm) with the Victor^2 multiplate reader (PerkinElmer). All data processing and visualization were performed using GraphPad Prism 6 software.

[2] = Caco-2 permeability assay; format: in vitro ADME; settings: human, pH 7.4; for Papp A→B at 2 h, 10 μmol/L / Papp B→A at 2 h, 10 μmol/L: Caco-2, mean ± standard deviation of three runs; for Papp A→B at 2 h, 10 μmol/L: read-out: Caco-2 (A→B) permeability coefficient; for Papp B→A at 2 h, 10 μmol/L: read-out: Caco-2 (B→A) permeability coefficient
[3] = Liver microsomal stability, human; settings: both, liver microsomes, pH 7.4
Experimental: (§1) One part of 10 mM DMSO compound stock was mixed with 4 parts of acetonitrile to make 2 mM diluted compound stock in DMSO and acetonitrile. 29.1 µL diluted compound stock was added to 2.3 mL liver microsomal solution and vortexed to make microsomal solution with compound. […] For the 0 h time point, 450 µL pre-cooled (4 °C) internal standard (10 µM warfarin in methanol) was added to the first three columns before the reaction was initiated. 1.25 ml of microsome assay solution A (Fisher Scientific, #NC9255727) was combined with 0.25 ml of solution B (Fisher Scientific, #NC9016235) in 3.5 ml of potassium phosphate buffer (0.1 M, pH 7.4). 45 µL of this A+B solution was added to each well of the 96-well storage plate (reaction plate). Liquid in the first 3 columns was moved to another storage plate (quenched plate). The reaction plate was then sealed, incubated at 37 °C, and shaken at a speed of 60 rpm. Time points (0.5 h, 1 h, 2 h) were taken. At each time point, 450 µL pre-cooled internal standard was added to 3 rows in the reaction plate, and the liquid was then transferred to the quenched plate. […] 200 µL supernatant was transferred to a 96-well plate and analyzed by ultra-performance liquid chromatography-mass spectrometry (UPLC-MS) (Waters Inc.). The compounds and internal standard were detected by selected ion recording (SIR).

[4] = Single oral dose pharmacokinetic study in mice; format: in vivo, mouse; settings: single oral gavage; for half-life: read-out: t½ (converted)
Experimental: Female BALB/c mice of 17-21 grams were purchased from Charles River Laboratories (Wilmington, MA). Food and water were provided ad libitum. […] All animal received 100 ± 20 µL of compound solution in formulation (10/10/40/40: […] Animals were euthanized via cardiac puncture at 48 h post injection. Blood samples were treated with 10 µL of EDTA sodium solution to prevent coagulation. […] The supernatant (40 µL) was collected and mixed with 2 parts of Milli-Q water and centrifuged again at 4000 rpm for 20 min at 4 °C. Plasma concentration was determined with a partially validated LC/MS-MS assay with multiple reaction monitoring detection (AB Sciex, Framingham, MA). The summary of the LC/MS/MS method is provided below. The assay lower limit of quantification (LLOQ) was 4.57 nM in plasma. […] The Area Under the Concentration-Time Curve (AUC) was calculated with the linear trapezoidal, linear interpolation rule using mean concentrations and nominal times. The standard error of the AUC to the last time point (AUClast) was generated using the sparse sampling option. The terminal elimination rate (Lambda_z) and half-life (HL_Lambda_z) was determined using the default “Best Fit” method. The predicted AUC from the last time point to infinity (AUCINF_pred) was calculated as AUClast plus Clast(pred)/Lambda_z. Clearance (CL or CL/F) was calculated as Dose/AUCINF_pred. If ≥2/3rds of the observed concentrations were below LLOQ, the mean concentration was treated missing. The calibration curve was obtained as follows. The calibration was done using the same biological matrices to ensure similar recovery. […] All concentrations in the calibration range must be no more than 20% deviation. If there were any points with more than 20% deviation on the high or low end, the calibration range would be truncated. If an outlier occurred in the middle of the curve, the whole curve would be re-done. The signal: noise of the compound peak at the H/LLOQ must be greater than 5. […] The samples were tested on the same or the second day.

[5] = Liver microsomal stability, rat; settings: liver microsomes, pH 7.4
Experimental: as §1

[6] = system: L. donovani intracellular amastigotes; test: Growth inhibition of intracellular amastigotes in J774A.1 macrophages (Renilla luciferase luminescence); format: cell-based; settings: Leishmania donovani, J774.A1; intracellular amastigotes in J774A.1 macrophages; mean ± standard deviation, n = 2; read-out: L. donovani EC50
Experimental: L. mexicana (MNYZ/BZ/62/M379) or L. donovani (LdBob strain) parasites expressing the Renilla luciferase gene from a rRNA gene locus were used to infect J774A.1 macrophages. Growth of intracellular amastigotes was measured using a luminescence assay, as detailed previously. The growth inhibitor activities of compounds were tested against bloodstream form Lister 427 T. brucei in 96-well plates containing 1 X 10^5 parasites per well in 0.2 ml HMI-11 medium (Gibco/Thermo Fisher). Compounds (2 μl volumes in DMSO) were added to the parasites using serial 3-fold dilutions to cover a range of concentrations from about 10 μM to 1 nM. After 48 h incubation at 37°C under a humidified 5% CO2 atmosphere, 10 μl of 10% Triton X-100 and 100 X stock SYBR Green I (Sigma-Aldrich) in PBS was added and florescence measured (excitation 497 nm; emission 520 nm) after 1 h incubation in the dark using a Spectra Max Gemini XPS fluorimeter (Molecular Devices). Data were log transformed and EC50 values were determined using GraphPad Prism 6 (GraphPad Software). In the absence of growth inhibiting compounds, the parasites grew from an initial density of 5 X 10^5 cells/mL to ~3 X 10^6 cells/mL.

[7] = Stability in simulated gastric fluid; settings: simulated gastric fluid with pepsin, pH 1
Experimental: Compound stocks were 10 mM in DMSO. The internal standard was 5 µM warfarin in methanol. […] 1 ml SGF was added to a 1.1 ml 96-well storage plate and mixed well with 10 µl compound stock. The plate was then incubated at 37 °C and shaken at 60 rpm. […] At each time point, 100 µl was removed to a 1 ml storage plate and 300 µl internal standard was added to quench the reaction. […] The compound was detected by SIR and quantification was based on peak area of test compound and the internal standard.

[8] = female, BALB/c, mouse, plasma, po, 25 mg/kg
[9] = female, BALB/c, mouse, plasma, po, 50 mg/kg

In the case of `COc1ccc(-c2c(C(F)(F)F)oc3c(CN4CCN(C)CC4)c(O)ccc3c2=O)cc1OC` [Compound 4], the “T. cruzi epimastigotes EC50” value [1] is reported as “no inhibition”, the Papp A→B at 2 h, 10 μmol/L [2] is reported as 49 ± 0.3 ×10⁻⁶ cm/s and the Papp B→A at 2 h, 10 μmol/L [2] is reported as 39 ± 0.7 ×10⁻⁶ cm/s. The half-life at 20 μM [3] was over 4 h, the Cmax [4, 8] was 3.2 µM and the Tmax [4, 8] was at most 1 h. For the same compound, the half-life ([4]; female, BALB/c, mouse, plasma, po, 25 mg/kg, 25 mg/kg, plasma) was 3 h, the AUC ([4]; female, BALB/c, mouse, 25 mg/kg, plasma) was 16.7 µM·h and the CL ([4]; 25 mg/kg) was 52.2 mL/min/kg. It also gave a Vd ([4]; 25 mg/kg) of 14.2 L/kg, a t½ ([4]; 25 mg/kg, plasma) of 3.2 h and a half-life at 20 μM [5] of over 4 h. For the same compound, the EC50 [6] was 600 ± 500 nM and the half-life at 99 µM [7] was over 48 h.
In the case of `Cc1ccc(-c2nc3ccccc3s2)cc1NC(=O)c1cc([N+](=O)[O-])c(N2CCN(C)CC2)cc1Cl` [Compound 5], the EC50 ([1]; Trypanosoma cruzi, read-out: T. cruzi epimastigotes EC50) is reported as 86 ± 30 nM, the efflux ratio at 2 h, 10 μmol/L ([2]; Caco-2, pH 7.4, Papp B→A / Papp A→B) is reported as 1.92 and the Papp A→B at 2 h, 10 μmol/L [2] is reported as 16.8 ± 2.4 ×10⁻⁶ cm/s. For the same compound, the Papp B→A at 2 h, 10 μmol/L [2] was 32.2 ± 2.9 ×10⁻⁶ cm/s, the half-life at 20 μM [3] was over 4 h and the Cmax [4, 9] was 6.49 µM. It also gave a Tmax [4, 9] of 4 h, a half-life ([4]; female, BALB/c, mouse, plasma, po, 50 mg/kg, 50 mg/kg, plasma) of 7.1 h and an AUC ([4]; female, BALB/c, mouse, 50 mg/kg, plasma) of 83.2 µM·h. It also gave a CL ([4]; 50 mg/kg) of 19.2 mL/min/kg, a Vd ([4]; 50 mg/kg) of 11.8 L/kg and a Cmax ([4]; 50 mg/kg, plasma) of 6.5 µM. It also gave a half-life at 20 μM [5] of over 4 h, an EC50 [6] of 29 ± 27 nM and a half-life at 99 µM [7] of over 24 h.

Source: paper PMC5764437, “Discovery of novel, orally bioavailable, antileishmanial compounds using phenotypic screening” (PLoS Neglected Tropical Diseases, 2017)
